Experimental data reported in patent US9187523B2 (priority 2006, dated 2015).

Molecular target: plasminogen activator (Pla) (Yersinia pestis, UniProt P17811)
Assay type: biochemical

plasminogen activator (Pla), sequence (P17811 21-312 limits assumed): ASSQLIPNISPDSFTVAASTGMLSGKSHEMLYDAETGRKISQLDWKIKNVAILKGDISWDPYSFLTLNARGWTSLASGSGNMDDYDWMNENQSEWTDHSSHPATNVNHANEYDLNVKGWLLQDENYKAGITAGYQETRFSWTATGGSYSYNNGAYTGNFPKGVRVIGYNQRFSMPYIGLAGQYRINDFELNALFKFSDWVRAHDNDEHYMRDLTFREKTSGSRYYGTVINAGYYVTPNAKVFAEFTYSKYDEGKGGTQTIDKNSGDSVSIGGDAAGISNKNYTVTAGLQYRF

pepstatin A
block of plasminogen activator activity: did not block
